Results published in US10933077B2, “TLR4 inhibitors for the treatment of human infectious and inflammatory disorders” (UNIVERSITY OF PITTSBURGH—OF THE COMMONWEALTH SYSTEM OF …, priority 2010, dated 2021).

Each compound was assayed against T1, TLR4 (Mus musculus, UniProt Q9JHF9+Q9QUK6) (assay: CFW endotoxemia assay (observation of behavior and phenotype after LPS)). Details: CFW mice, 20 nanomoles compound i.p. 30 minutes prior to LPS 2 mg/kg, 6 hours; listed as “Hits”.
T1 construct: Swiss Webster (CFW) and NFkB-luciferase reporter mice were obtained from The Jackson Laboratory; tissue The Jackson Laboratory; host or cells: whole live Swiss Webster (CFW) mice
T1 sequence (Q9QUK6 26-835): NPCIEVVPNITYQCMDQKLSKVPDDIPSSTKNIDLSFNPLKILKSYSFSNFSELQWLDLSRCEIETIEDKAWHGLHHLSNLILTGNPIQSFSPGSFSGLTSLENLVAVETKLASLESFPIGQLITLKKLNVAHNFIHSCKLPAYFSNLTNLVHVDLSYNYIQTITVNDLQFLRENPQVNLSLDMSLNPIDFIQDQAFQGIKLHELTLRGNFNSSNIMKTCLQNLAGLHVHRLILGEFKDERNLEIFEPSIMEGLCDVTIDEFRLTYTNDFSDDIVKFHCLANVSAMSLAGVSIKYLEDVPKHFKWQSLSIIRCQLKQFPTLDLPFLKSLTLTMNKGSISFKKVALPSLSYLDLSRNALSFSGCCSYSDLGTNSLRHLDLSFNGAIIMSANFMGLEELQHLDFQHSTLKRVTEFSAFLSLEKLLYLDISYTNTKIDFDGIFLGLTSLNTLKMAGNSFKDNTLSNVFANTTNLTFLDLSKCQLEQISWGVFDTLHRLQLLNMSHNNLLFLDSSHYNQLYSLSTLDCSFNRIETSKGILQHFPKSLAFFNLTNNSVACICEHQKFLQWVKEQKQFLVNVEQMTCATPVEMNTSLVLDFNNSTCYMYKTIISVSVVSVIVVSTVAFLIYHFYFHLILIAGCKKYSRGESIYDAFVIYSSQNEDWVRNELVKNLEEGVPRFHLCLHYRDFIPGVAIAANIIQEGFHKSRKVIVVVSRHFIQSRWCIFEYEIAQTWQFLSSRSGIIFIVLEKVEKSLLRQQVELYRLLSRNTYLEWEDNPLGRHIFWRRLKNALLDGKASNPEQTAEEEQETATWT
T1 sequence (Q9JHF9 19-160): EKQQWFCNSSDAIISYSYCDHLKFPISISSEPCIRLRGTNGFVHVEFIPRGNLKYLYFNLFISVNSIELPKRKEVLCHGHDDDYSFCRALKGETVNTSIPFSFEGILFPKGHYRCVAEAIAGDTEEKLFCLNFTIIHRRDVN
Type: in vivo
Method: Compound preparation and delivery. All 65 identified compounds were received in solid form and stored at 4° C. until use. Stock solutions of each compound were made by dissolving the appropriate amount of each compound in dimethyl sulfoxide (DMSO) to yield a concentration of 10 mM. Immediately prior to injection into experimental animals, the compounds were diluted to an experimental concentration of 100 uM in phosphate-buffered saline (PBS). Total concentration of DMSO in the final diluted drug was 1%. Compounds were closely examined to insure that no precipitate formed prior to injection and were stored on ice until injection. All compounds were given via intraperitoneal (i.p.) injection in a total volume of 200 ul using a 1 cc syringe and 27 gauge needle. In all experiments listed below, the compounds were delivered to the experimental mice 30 minutes prior to injection with lipopolysaccharide (LPS) to induce endotoxemia. Control animals not receiving compound received 1% DMSO dissolved in PBS. Following drug injection, the mice were observed closely in their cages for signs of immediate toxicity or adverse reaction to the drug, including but not limited to piloerection, tachypnea, bleeding, abnormal or aggressive behavior, signs of altered mental status, and level of activity.
Induction of endotoxemia. All mice were housed and cared for at the Rangos Research Center, Children's Hospital of Pittsburgh (Pittsburgh, Pa.). All experiments were approved by the Children's Hospital of Pittsburgh Animal Care Committee and by the Institutional Review Board of the University of Pittsburgh. Swiss Webster (CFW) and NFkB-luciferase reporter mice were obtained from The Jackson Laboratory. Throughout the course of all experiments, mice were housed 4 per cage with access to food, water, and standard bedding. Endotoxemia was induced in all experiments by i.p. injection of LPS (Escherichia coli 0111:B4 purified by gel filtration chromatography, >99% pure, Sigma-Aldrich) at a dose of 2 mg/kg for 6 hours. At the end of each experiment, all animals were euthanized by CO2 hypoxia and cervical dislocation.
CFW endotoxemia assay. In order to effectively screen the entire compound list, the remaining compounds (7-60) were screened in a model of endotoxemia using CFW mice. Three separate experiments were performed: First, Compound 7 along with a repeat of compound 4 (n=3 mice per compound, mice age 5 weeks) were tested. Controls were saline injection alone (n=1), LPS 2 mg/kg 6 hrs (n=2). Second, compounds 3, 4, 6, 8-32 were tested (n=1 mouse each, 3 week old mice). Controls were saline injection alone (n=1), LPS 2 mg/kg 6 hrs (n=2), LPS 10 mg/kg 6 hrs (n=2), Bay 11 pretreatment 20 mg/kg for 30 minutes prior to LPS 2 mg/kg 6 hrs. Third, compounds 8, 16, 33-60 were tested (n=1 mouse each, 3 week old mice). Controls were saline injection alone (n=1), LPS 2 mg/kg 6 hrs (n=2), Bay 11 pretreatment 20 mg/kg for 30 minutes prior to LPS 2 mg/kg 6 hrs. Following 6 hours of endotoxemia, mice from the second and third experiments were observed within their cages and videotaped to document behavior and phenotypic differences to assess for an inhibitory effect of compound pretreatment on the effects of LPS. Mice were identified by a number previously placed using permanent marker on their tails. The degree of piloerection, tachypnea, location in the cage (center of cage versus corners), degree of activity, and behavior relative to other animals was observed and documented via video for each mouse.
Less activity, tachypnea, and piloerection are considered symptomatic of endotoxemia, so a decrease in these is consistent with TLR inhibition by the administered compound. Note that compounds listed as negatives may still be T4Ics at other concentrations or conditions.

Row | Compound | Observation (Compound “Hits”)
1 | O=P(O)(O)OCC1OC(OP(=O)(O)O)C(O)[C@H](O)[C@@H]1O (stereo partly drawn) [Compound 8, cyclohexanamine compound with 1,6-di-O-phosphono-beta-D-glycero-hexopyranose (4:1) hydrate] | More mobile, less piloerection
2 | CCO[C@@H]1O[C@H](COC(C)=O)[C@@H](OC(C)=O)[C@H](OC(C)=O)[C@H]1NC(C)=O [Compound 55, ethyl 3,4,6-tri-O-acetyl-2-(acetylamino)-2-deoxy-beta-D-glycero-hexopyranoside] | Less piloerection, less tachypnea, more active
3 | CCOC1OC(CO)C(O)C(O)C1NC(C)=O (centres unmarked) [Compound 63, N-[2-ethoxy-4,5-dihydroxy-6-(hydroxymethyl)oxan-3-yl]acetamide] | More mobile, less piloerection
4 | CCCCCCO[C@@H]1O[C@H](COC(C)=O)[C@@H](OC(C)=O)[C@H](OC(C)=O)[C@H]1NC(C)=O [Compound 36, hexyl 3,4,6-tri-O-acetyl-2-(acetylamino)-2-deoxy-beta-D-glucopyranoside] | More active, crawled over other mice, less piloerection
5 | C=CCO[C@@H]1O[C@H](COC(C)=O)[C@H](OC(C)=O)[C@H](OC(C)=O)[C@H]1NC(C)=O [Compound 47, allyl 3,4,6-tri-O-acetyl-2-(acetylamino)-2-deoxy-beta-D-lyxo-hexopyranoside] | More active, crawled over other mice, less piloerection
6 | CCCCCCCCCCCCCCCCOC1OC(COC(C)=O)C(OC(C)=O)C(OC(C)=O)C1NC(C)=O (centres unmarked) [Compound 61, [5-acetamido-3-acetyloxy-2-(acetyloxymethyl)-6-hexadecoxy-oxan-4-yl] acetate] | Less piloerection, less tachypnea
7 | CC(=O)N[C@H]1[C@H](OC[C@H]2O[C@@H]3OC(C)(C)O[C@@H]3[C@H]3OC(C)(C)O[C@H]32)O[C@H](CO)[C@@H](O)[C@@H]1O [Compound 21, N-((2R,3R,4R,5S,6R)-4,5-dihydroxy-6-(hydroxymethyl)-2-(((3aR,5R,5aS,8aS,8bR)-2,2,7,7-tetramethyltetrahydro-3aH-bis[1,3]dioxolo[4,5-b:4′,5′-d]pyran-5-yl)methoxy)tetrahydro-2H-pyran-3-yl) acetamide] | More active, crawled over other mice, less piloerection
8 | CC(=O)NC1C(OC(C)C(=O)O)[C@H](O)C(CO)O[C@H]1O (stereo partly drawn) [Compound 30, 2-((2R,5S)-3-acetamido-2,5-dihydroxy-6-(hydroxymethyl)tetrahydro-2H-pyran-4-yloxy)propanoic acid] | Less tachypnea, more mobile
9 | CC(=O)NC1C(O)OC(CO)C(O)C1O [Compound 52, 2-(acetylamino)-2-deoxy-beta-D-glycero-hexopyranose] | More active, less piloerection

Same assay, conditions: CFW mice, 20 nanomoles compound i.p. 30 minutes prior to LPS 2 mg/kg, 6 hours; listed as “Negatives”

Row | Compound | Observation (Compound “Negatives”)
10 | (2R,3S,4R,5R,6R)-5-acetamido-2-(acetoxymethyl)-6-(((3aR,5R,5aS,8aS,8bR)-2,2,7,7-tetramethyltetrahydro-3aH-bis[1,3]dioxolo[4,5-b:4′,5′-d]pyran-5-yl)methoxy)tetrahydro-2H-pyran-3,4-diyl-diacetate [Compound 38] | Less active
11 | CC(=O)N[C@@H]1C[C@H](O)[C@@H](CO)O[C@H]1O[C@H]1[C@H](O)[C@@H](O)[C@H](O)O[C@@H]1C(=O)[O-].[Na+] [Compound 32, sodium (2S,3S,4R,5R,6R)-3-((2S,3R,5S,6R)-3-acetamido-5-hydroxy-6-(hydroxymethyl)tetrahydro-2H-pyran-2-yloxy)-4,5,6-trihydroxytetrahydro-2H-pyran-2-carboxylate] | More tachypneic, more piloerection
12 | CC(=O)N[C@H]1[C@H](O[C@H]2[C@H](O)[C@@H](NC(C)=O)C(O)O[C@@H]2CO)O[C@H](CO)[C@@H](O[C@@H]2O[C@H](CO)[C@@H](O)[C@H](O)[C@H]2NC(C)=O)[C@@H]1O (stereo partly drawn) [Compound 1, 2-(acetylamino)-4-O-{2-(acetylamino)-4-O-[2-(acetylamino)-2-deoxy-beta-D-glucopyranosyl]-2-deoxy-beta-D-glucopyranosyl}-2-deoxy-D-glucopyranose] | More tachypnea, rigors
13 | CCCCO[C@@H]1O[C@H](CO)[C@@H](OC)[C@H](OC)[C@H]1NC(C)=O [Compound 14, butyl 2-(acetylamino)-2-deoxy-3,4-di-O-methyl-beta-D-glucopyranoside] | Refused to move from corner, very tachpneic
14 | CC(=O)N[C@@H]1[C@@H](O)[C@@H](O)[C@@H](CO)O[C@@H]1O [Compound 31, 2-(acetylamino)-2-deoxy-alpha-D-lyxo-hexopyranose] | More tachypneic, more piloerection
15 | CC(=O)N[C@H]1[C@H](OC[C@H]2O[C@@H]3OC4(CCCCC4)O[C@@H]3[C@H]3OC4(CCCCC4)O[C@H]32)O[C@H](CO)[C@@H](O)[C@@H]1O [Compound 37, N-[(2R,3R,4R,5S,6R)-2-[(1′S,2′R,6′R,8′R,9′S)-dispiro[cyclohexane-1,4′-[3,5,7,10,12]pentaoxatricyclo[7.3.0.0^{2,6}]dodecane-11′,1″-cyclohexane]-8′-ylmethoxy]-4,5-dihydroxy-6-(hydroxymethyl)oxan-3-yl]acetamide] | More tachypneic, less active
16 | COC(=O)C1(OC)CC(O)C(NC(C)=O)C(C(O)C(O)CO)O1 [Compound 25, dimethyl 5-(acetylamino)-3,5-dideoxy-D-erythro-non-2-ulopyranosidonate] | More piloerection, less mobile than other in the cage
17 | COC1OC(COC(C)=O)C(OC(C)=O)C(OC(C)=O)C1NC(C)=O (centres unmarked) [Compound 62, (5-acetamido-3,4-diacetyloxy-6-methoxy-oxan-2-yl)methyl acetate] | Nearly static, little movement, rigors
